{
  "source": "patent US9365534B2",
  "about": "“Arylated camphenes, processes for their preparation and uses thereof” (Yissum Research Development Company of the Hebrew …, priority 2009, dated 2016)",
  "tested_on": "TNF-α",
  "assay": "TNF-α production in brain following CHI (ELISA)",
  "type": "in vivo, mice",
  "settings": "HU-914 5 mg/kg i.p. 1 h after CHI, sacrificed 4 hrs after CHI",
  "experimental": "TNF-α activity can be induced by ischemic and traumatic brain injury starting at 1-2 h and reaching the peak at 4 h following CHI. (Shohami et al., 1997). The next step was to investigate the effect of HU-914 on TNF-α production after CHI. Three groups of mice (n=5-6) were subjected to CHI: • Group 1 (Control): Sham controls received anesthesia and skin incision only. • Group 2: Vehicle only (ethanol:cremophor:saline at ratio of 1:1:18), i.p. 1 h after CHI. • Group 3: HU-914, 5 mg/kg, dissolved in vehicle (1:1:18 ethanol:cremophor:saline), i.p. 1 h after CHI.\nThe animals were sacrificed 4 hrs after CHI by decapitation. Brains were rapidly removed and dissected into ipsilateral and contralateral cortical and hippocampal segments that were frozen in liquid nitrogen and kept at […]. […] Following sonication on ice for 45 s and centrifugation at 12,000 rpm for 20 min, protein concentrations in the supernatants were determined using the Bradford method (Bio-Rad Laboratories, Munich, Germany). Supernatants were analyzed by enzyme-linked immunosorbent assay (ELISA) for production of TNF-α, using cytokine specific kit from R&D Systems (Minneapolis, Minn.). […] TNF-α elevation was not detected in the right cortex or hippocampus (FIG. 8).",
  "data": [
    {"smiles": "CCCCCCC(C)(C)c1cc(OC)c(C2=C[C@H]3CC[C@]2(C(=O)O)C3(C)C)c(OC)c1", "note": "[HU-914, (1S,4R)-2-(2,6-dimethoxy-4-(2-methyloctan-2-yl)phenyl)-7,7-dimethylbicyclo[2.2.1]hept-2-ene-1-carboxylic acid]", "values": [
      {"measurement": "TNF-α level, left cortex", "result": "did not affect the cytokine's level"},
      {"measurement": "TNF-α production, hippocampus of the injured left hemisphere", "result": "inhibited TNF-α production"}
    ]}
  ]
}
